# Reference: ChEMBL document CHEMBL1127120, “Benzofuran based angiotensi II antagonists related to GR117289: Part II; amino acid amides” (Bioorg Med Chem Lett, 1993)
# Activity calls are given as the source filed them. The calls are words filed in the database; no cut-off is given here.
# What was measured:
# [1] = target: T1, Type-1 angiotensin II receptor (Oryctolagus cuniculus) (UniProt P34976); assay: Affinity for Angiotensin II receptor, type 1 as antagonism of angII contractile effect in rabbit isolated thoracic aorta; type: functional, tissue-based
# T1 sequence (whole entry): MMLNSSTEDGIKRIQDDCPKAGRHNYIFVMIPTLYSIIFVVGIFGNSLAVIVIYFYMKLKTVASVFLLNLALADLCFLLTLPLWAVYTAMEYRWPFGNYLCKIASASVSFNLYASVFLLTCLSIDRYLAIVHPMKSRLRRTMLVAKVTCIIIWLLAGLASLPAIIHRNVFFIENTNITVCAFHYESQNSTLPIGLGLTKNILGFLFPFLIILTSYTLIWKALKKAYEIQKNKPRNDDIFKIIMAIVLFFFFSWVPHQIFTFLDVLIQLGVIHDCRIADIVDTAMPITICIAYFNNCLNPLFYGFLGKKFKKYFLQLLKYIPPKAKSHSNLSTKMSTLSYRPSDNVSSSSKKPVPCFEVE
# Rattus norvegicus [2] = species: Rattus norvegicus; assay: Oral activity in renal artery ligated rat model was determined; no significant activity.; type: functional, organism-based
# Rattus norvegicus [3] = assay: Oral activity in renal artery ligated rat model was determined; excellent significant activity causing large and sustained fall in blood pressure at a dose of 1 mg/Kg.; type: functional, organism-based
Structure (SMILES),pKB [1],Activity (Rattus norvegicus [2]),Activity (Rattus norvegicus [3])
CCCCc1nc(Cl)c(C(=O)NCC(=O)O)n1Cc1ccc2oc(-c3ccccc3-c3nn[nH]n3)c(Br)c2c1,9.4,inactive,
CCCCc1nc(Cl)c(C(=O)N[C@@H](C(=O)O)[C@H](C)CC)n1Cc1ccc2oc(-c3ccccc3-c3nn[nH]n3)c(Br)c2c1,9.2,inactive,
CCCCc1nc(Cl)c(C(=O)N[C@@H](C)C(=O)O)n1Cc1ccc2oc(-c3ccccc3-c3nn[nH]n3)c(Br)c2c1,8.9,inactive,
CCCCc1nc(Cl)c(C(=O)N[C@H](C)C(=O)O)n1Cc1ccc2oc(-c3ccccc3-c3nn[nH]n3)c(Br)c2c1,9,inactive,
CCCCc1nc(Cl)c(C(=O)NCC(=O)OCC)n1Cc1ccc2oc(-c3ccccc3-c3nn[nH]n3)c(Br)c2c1,9.3,,Active
CCCCc1nc(Cl)c(C(=O)NCC(N)=O)n1Cc1ccc2oc(-c3ccccc3-c3nn[nH]n3)c(Br)c2c1,9.4,inactive,
CCCCc1ncc(C=C(Cc2cccs2)C(=O)O)n1Cc1ccc2oc(-c3ccccc3-c3nn[nH]n3)c(Br)c2c1,10.9,,
CCCCc1nc(Cl)c(C(=O)N[C@H](Cc2ccccc2)C(=O)O)n1Cc1ccc2oc(-c3ccccc3-c3nn[nH]n3)c(Br)c2c1,8,inactive,
